Source: ChEMBL document CHEMBL5532651, “HDAC specificity and kinase off-targeting by purine-benzohydroxamate anti-hematological tumor agents” (Eur J Med Chem, 2024)
The source made the active and inactive calls. The calls are words filed in the database; no cut-off is given here.

Experiments:
[1] = molecular target: T1, Protein deacetylase HDAC6 (Homo sapiens) (UniProt Q9UBN7); assay: Inhibition of HDAC6 in human U-937 cells assessed as increase in acetyl-alpha-tubulin level at IC50 incubated for 48 hrs by Western blot analysis; format: cell-based
T1 sequence (whole entry): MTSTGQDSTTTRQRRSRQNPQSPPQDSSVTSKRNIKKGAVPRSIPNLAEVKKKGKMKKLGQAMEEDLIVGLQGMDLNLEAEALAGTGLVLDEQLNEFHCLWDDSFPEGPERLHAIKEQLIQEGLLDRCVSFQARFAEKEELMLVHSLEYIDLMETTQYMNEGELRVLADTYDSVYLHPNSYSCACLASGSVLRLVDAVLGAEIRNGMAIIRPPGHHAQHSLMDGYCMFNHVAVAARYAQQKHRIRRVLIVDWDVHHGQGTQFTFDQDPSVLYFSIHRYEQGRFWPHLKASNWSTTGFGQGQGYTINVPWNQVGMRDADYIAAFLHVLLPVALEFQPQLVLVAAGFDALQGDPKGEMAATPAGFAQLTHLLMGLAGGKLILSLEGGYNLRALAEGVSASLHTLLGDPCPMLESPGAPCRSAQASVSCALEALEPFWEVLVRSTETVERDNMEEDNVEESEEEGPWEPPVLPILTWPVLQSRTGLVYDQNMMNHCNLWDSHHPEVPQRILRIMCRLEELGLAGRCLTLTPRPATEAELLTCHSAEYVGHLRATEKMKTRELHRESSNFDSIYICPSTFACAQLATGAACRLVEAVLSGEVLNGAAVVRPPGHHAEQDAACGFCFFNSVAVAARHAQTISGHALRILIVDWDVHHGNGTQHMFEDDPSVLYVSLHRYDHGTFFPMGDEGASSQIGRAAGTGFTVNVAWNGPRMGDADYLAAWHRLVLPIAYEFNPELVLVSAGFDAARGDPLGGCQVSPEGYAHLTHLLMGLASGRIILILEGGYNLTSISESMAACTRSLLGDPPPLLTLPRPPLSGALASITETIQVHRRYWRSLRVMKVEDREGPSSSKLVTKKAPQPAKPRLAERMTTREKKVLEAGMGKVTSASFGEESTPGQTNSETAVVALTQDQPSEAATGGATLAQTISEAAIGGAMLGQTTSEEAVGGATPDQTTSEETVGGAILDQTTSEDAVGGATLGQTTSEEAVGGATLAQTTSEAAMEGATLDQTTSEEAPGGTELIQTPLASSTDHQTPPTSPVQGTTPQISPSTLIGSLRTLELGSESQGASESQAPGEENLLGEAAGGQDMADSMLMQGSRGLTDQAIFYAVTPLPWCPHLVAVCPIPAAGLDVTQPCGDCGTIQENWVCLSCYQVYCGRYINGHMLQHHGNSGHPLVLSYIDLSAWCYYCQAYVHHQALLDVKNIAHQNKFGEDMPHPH

[2] = molecular target: T1, Protein deacetylase HDAC6 (Homo sapiens); assay: Inhibition of HDAC6 in human Jurkat cells assessed as increase in acetyl-histone H3 level at IC50 incubated for 48 hrs by Western blot analysis; format: cell-based
[3] = Selectivity index, ratio of IC50 for human HCT-116 cells to IC50 for human Jurkat cells; format: functional
Jurkat [4] = assay: Potency index, ratio of Vorinostat IC50 to test compound IC50 for human Jurkat cells assessed as cell growth inhibition incubated for 24 to 72 hrs by MTT assay; format: functional; settings: time 24-72 hrs
[5] = Selectivity index, ratio of IC50 for human leukocytes cells to IC50 for human NAMALVA cells; format: functional
Histone deacetylase 1 [6] = molecular target: T2, Histone deacetylase 1 (Homo sapiens, UniProt Q13547); assay: Inhibition of HDAC1 in human Jurkat cells assessed as increase in acetyl-histone H3 level at IC50 incubated for 48 hrs by Western blot analysis; format: cell-based
CYP2D6 = CYP2D6 (Homo sapiens, UniProt P10635); assay: Inhibition of CYP2D6 in liver microsomes (unknown origin) at 10 uM incubated for 10 mins relative to control; format: ADME, Microsome
[7] = Selectivity index, ratio of IC50 for human MCF7 cells to IC50 for human Jurkat cells; format: functional
[8] = Selectivity index, ratio of IC50 for human HS5 cells to IC50 for human NAMALVA cells; format: functional
[9] = Stability in human liver microsome assessed as half life at 1 uM measured for 60 mins by LC-MS/MS analysis; format: ADME; settings: liver microsomes
[10] = Stability in human liver microsome assessed as intrinsic clearance at 1 uM measured for 60 mins by LC-MS/MS analysis; format: ADME; settings: liver microsomes, read-out: CLH
U-937 [11] = assay: Inhibition of cell proliferation of human U-937 cells assessed as reduction in Ki-67 expression at IC50 measured after 48 hrs by flow cytometry; format: functional, cell-based
Histone deacetylase 1 [12] = molecular target: T2, Histone deacetylase 1; assay: Inhibition of HDAC1 in human U-937 cells assessed as increase in acetyl-alpha-tubulin level at IC50 incubated for 48 hrs by Western blot analysis; format: cell-based
[13] = Selectivity index, ratio of IC50 for human leukocytes cells to IC50 for human Jurkat cells; format: functional
[14] = molecular target: T1, Protein deacetylase HDAC6 (Homo sapiens); assay: Inhibition of HDAC6 in human NAMALVA cells assessed as increase in acetyl-alpha-tubulin level at IC50 incubated for 48 hrs by Western blot analysis; format: cell-based
Histone deacetylase 1 [15] = molecular target: T2, Histone deacetylase 1; assay: Inhibition of HDAC1 in human NAMALVA cells assessed as increase in acetyl-histone H3 level at IC50 incubated for 48 hrs by Western blot analysis; format: cell-based
Histone deacetylase 1 [16] = molecular target: T2, Histone deacetylase 1; assay: Inhibition of full-length recombinant human HDAC1 expressed in baculovirus infected Sf9 cells using RHKK(Ac)AMC as substrate preincubated for 5 to 10 mins followed by substrate addition measured after 2 hrs by fluorescence based assay
CYP2C9 = CYP2C9 (Homo sapiens, UniProt P11712); assay: Inhibition of CYP2C9 in liver microsomes (unknown origin) at 10 uM incubated for 10 mins relative to control; format: ADME, Microsome
HCT-116 = assay: cells; settings: Homo sapiens
[17] = molecular target: T1, Protein deacetylase HDAC6 (Homo sapiens); assay: Inhibition of HDAC6 in human NAMALVA cells assessed as increase in acetyl-histone H3 level at IC50 incubated for 48 hrs by Western blot analysis; format: cell-based
[18] = molecular target: T1, Protein deacetylase HDAC6 (Homo sapiens); assay: Inhibition of HDAC6 in human Jurkat cells assessed as increase in acetyl-alpha-tubulin level at IC50 incubated for 48 hrs by Western blot analysis; format: cell-based
U-937 [19] = assay: Induction of apoptosis in human U-937 cells at IC50 measured after 48 hrs by flow cytometry; format: functional, cell-based
[20] = Selectivity index, ratio of IC50 for human HCT-116 cells to IC50 for human NAMALVA cells; format: functional
[21] = Stability in mouse liver microsome assessed as intrinsic clearance at 1 uM measured for 60 mins by LC-MS/MS analysis; format: ADME; settings: liver microsomes, read-out: CLH
Jurkat [22] = assay: Inhibition of cell proliferation of human Jurkat cells assessed as reduction in Ki-67 expression at IC50 measured after 48 hrs by flow cytometry; format: functional, cell-based
NAMALVA = assay: cells; settings: Homo sapiens
Histone deacetylase 1 [23] = molecular target: T2, Histone deacetylase 1; assay: Inhibition of HDAC1 in human U-937 cells assessed as increase in acetyl-histone H3 level at IC50 incubated for 48 hrs by Western blot analysis; format: cell-based

T2 sequence (Q13547 whole entry): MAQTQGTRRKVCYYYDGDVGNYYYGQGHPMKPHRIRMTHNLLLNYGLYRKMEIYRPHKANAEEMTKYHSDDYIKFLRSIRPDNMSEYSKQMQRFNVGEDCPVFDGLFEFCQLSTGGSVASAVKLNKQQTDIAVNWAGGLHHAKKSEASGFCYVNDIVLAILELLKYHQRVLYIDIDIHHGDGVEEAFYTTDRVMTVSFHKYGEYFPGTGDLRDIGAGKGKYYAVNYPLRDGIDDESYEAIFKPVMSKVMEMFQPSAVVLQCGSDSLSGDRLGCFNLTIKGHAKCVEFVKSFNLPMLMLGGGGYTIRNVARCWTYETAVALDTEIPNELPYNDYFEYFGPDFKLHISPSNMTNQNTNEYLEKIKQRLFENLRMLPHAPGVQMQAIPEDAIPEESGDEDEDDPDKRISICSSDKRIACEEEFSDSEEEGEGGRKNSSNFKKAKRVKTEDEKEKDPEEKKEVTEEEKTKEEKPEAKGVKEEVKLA
Sequence of CYP2D6 (P10635 whole entry): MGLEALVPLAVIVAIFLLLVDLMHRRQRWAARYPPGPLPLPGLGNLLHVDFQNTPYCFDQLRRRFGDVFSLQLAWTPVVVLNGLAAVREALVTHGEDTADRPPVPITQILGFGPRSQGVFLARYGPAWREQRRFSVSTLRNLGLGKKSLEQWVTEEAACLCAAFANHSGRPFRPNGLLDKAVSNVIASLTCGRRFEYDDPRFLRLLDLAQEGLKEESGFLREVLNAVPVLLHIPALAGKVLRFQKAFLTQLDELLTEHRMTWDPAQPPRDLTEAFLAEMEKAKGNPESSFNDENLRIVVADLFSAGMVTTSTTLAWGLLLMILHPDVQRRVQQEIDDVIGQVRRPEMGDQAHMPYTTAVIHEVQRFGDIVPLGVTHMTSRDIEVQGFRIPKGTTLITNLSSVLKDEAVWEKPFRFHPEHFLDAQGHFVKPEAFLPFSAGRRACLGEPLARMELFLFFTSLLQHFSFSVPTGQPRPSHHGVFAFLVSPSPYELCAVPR
Sequence of CYP2C9 (P11712 whole entry): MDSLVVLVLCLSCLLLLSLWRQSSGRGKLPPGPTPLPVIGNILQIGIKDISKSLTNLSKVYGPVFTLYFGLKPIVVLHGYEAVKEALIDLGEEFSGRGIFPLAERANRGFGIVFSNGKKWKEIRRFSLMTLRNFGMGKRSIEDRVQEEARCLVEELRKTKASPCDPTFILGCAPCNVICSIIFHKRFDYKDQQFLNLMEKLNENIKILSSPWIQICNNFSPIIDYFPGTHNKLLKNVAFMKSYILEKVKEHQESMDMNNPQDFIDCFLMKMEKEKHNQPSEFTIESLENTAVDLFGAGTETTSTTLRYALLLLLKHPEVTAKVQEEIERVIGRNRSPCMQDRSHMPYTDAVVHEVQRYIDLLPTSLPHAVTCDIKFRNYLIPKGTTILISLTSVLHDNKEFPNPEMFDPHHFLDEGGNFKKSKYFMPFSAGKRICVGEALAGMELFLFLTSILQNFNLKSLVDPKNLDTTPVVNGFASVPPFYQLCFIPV

| Structure (SMILES) | inhibition [1] | inhibition [2] | Ratio IC50 [3] | Ratio IC50 (Jurkat [4]) | Ratio IC50 [5] | inhibition (Histone deacetylase 1 [6]) | inhibition at 10 min, 10 µM (CYP2D6) | Ratio IC50 [7] | Ratio IC50 [8] | half-life at 1 µM [9] | microsomal CLint at 1 µM [10] | inhibition (U-937 [11]) | inhibition (Histone deacetylase 1 [12]) | Ratio IC50 [13] | inhibition [14] | inhibition (Histone deacetylase 1 [15]) | IC50 (Histone deacetylase 1 [16]) | inhibition at 10 min, 10 µM (CYP2C9) | IC50 (HCT-116) | inhibition [17] | further results |
| --- | --- | --- | --- | --- | --- | --- | --- | --- | --- | --- | --- | --- | --- | --- | --- | --- | --- | --- | --- | --- | --- |
| O=C(NO)c1ccc(Cn2cnc3c(Nc4ccc(F)c(Cl)c4)ncnc32)cc1 | Active | Active | 83 | <=10 | >=100 | Active | 10% | 83 | >=100 | > 120 min | < 6 µL/min/mg | Active | Active | >=100 | Active | Active | 189 nM | 52% | 9.3 µM | Active | inhibition [18]: Active; Activity (U-937 [19]): Active; Ratio IC50 [20]: 83; microsomal CLint at 1 µM [21]: 20 µL/min/mg; inhibition (Jurkat [22]): Active; IC50 (NAMALVA): 40 nM; inhibition (Histone deacetylase 1 [23]): Active |
| COc1ccc(Nc2ncnc3c2ncn3Cc2ccc(C(=O)NO)cc2)cc1 | Active | Active | 83 | <=10 | >=100 | Active | 10% | 83 | >=100 | > 120 min | < 6 µL/min/mg | Active | Active | >=100 | Active | Active | 118 nM | 34% | 8.3 µM | Active | inhibition [18]: Active; Activity (U-937 [19]): Active; Ratio IC50 [20]: 83; microsomal CLint at 1 µM [21]: 14 µL/min/mg; inhibition (Jurkat [22]): Active; IC50 (NAMALVA): 100 nM; inhibition (Histone deacetylase 1 [23]): Active |
